Data: patent US9556192B2, “Functionalized 9-bromo-camptothecin derivatives” (NERVIANO MEDICAL SCIENCES S.R.L., priority 2012, dated 2017)
Where a name gives a salt, the structure may show the parent alone. Read-outs that look alike come from different tables or passages of the source.

Assays:
[1] = tested on: A2780 human ovarian cancer cells; assay: In vitro cell proliferation assay (CellTiter-Glo); assay type: cell-based; conditions: 72 h
Procedure: In Vitro Cell Proliferation Assay
A2780 human ovarian and MCF7 human breast cancer cells (1250 cells/well) were seeded in white 384 well-plates in complete medium (RPMI1640 or EMEM plus 10% Fetal bovine serum) and treated with compounds dissolved in 0.1% DMSO, 24 h after seeding. The cells were incubated at 37° C. and 5% CO2 and after 72 h the plates were processed using CellTiter-Glo assay (Promega) following the manufacturers instructions.
CellTiter-Glo is a homogenous method based on the quantification of the ATP present, an indicator of metabolically active cells. ATP is quantified using a system based on luciferase and D-luciferin resulting into light generation. The luminescent signal is proportional to the number of cells present in culture.
Briefly, 25 μL/well of reagent solution are added to each well and after 5 min shaking microplates are read by a luminometer. The luminescent signal is proportional to the number of cells present in culture.

[2] = Elimination of self-immolative group at pH 7.4 (HPLC/MS); assay type: physicochemical; conditions: pH 7.4 (Tris-HCl buffer), room temperature, 1 h
Procedure: (§1) The conjugate A1 was incubated with 0.2 units of cathepsin B in sodium acetate buffer pH 5.5 and 1 mM Cys for 2 h at 40° C. Then pH was adjusted to 7.4 by addition of Tris-HCl buffer and maintained at room temperature for 1 h.

cathepsin B = cathepsin B (Homo sapiens, UniProt P07858); assay: Release of a drug moiety from conjugate in presence of cathepsin B; assay type: biochemical; conditions: 0.2 units cathepsin B, sodium acetate buffer pH 5.5, 1 mM Cys, 2 h at 40° C.
Procedure: As an example, that is not intended to limit the scope of the invention, the release of a compound of formula (I) from the conjugate was performed in presence of cathepsin as reported below.
as §1

[3] = read-out: IC50 value in A2780 human ovarian cancer cells

SMILES | IC50 ([1]; read-out: A2780 (IC50 nM)) [nM] | IC50 [1, 3] [nM] | Release of 9-bromo-camptothecin by elimination of the self-immolative group W [2] | Cleavage of the Z peptidic linker of the conjugate with release of Comp. 11 (cathepsin B)
CC[C@@]1(O)C(=O)OCc2c1cc1n(c2=O)Cc2cc3c(Br)cccc3nc2-1 [9-bromo-camptothecin] | 1.62 |  |  | 
CC[C@@]1(OC(=O)CN)C(=O)OCc2c1cc1n(c2=O)Cc2cc3c(Br)cccc3nc2-1 [Comp. 1, (4S)-10-bromo-4-ethyl-3,14-dioxo-3,4,12,14-tetrahydro-1H-pyrano[3′,4′6,7]indolizino[1,2-b]quinolin-4-yl glycinate hydrochloride] | 0.97 | < 10 |  | 
CC[C@@]1(OC(=O)CNC(=O)[C@H](CC(C)C)NC(=O)[C@@H](N)Cc2ccccc2)C(=O)OCc2c1cc1n(c2=O)Cc2cc3c(Br)cccc3nc2-1 [Comp. 2, (4S)-10-bromo-4-ethyl-3,14-dioxo-3,4,12,14-tetrahydro-1H-pyrano[3′,4′:6,7]indolizino[1,2-b]quinolin-4-yl L -phenylalanyl-L-leucylglycinate] | 1.56 | < 10 |  | 
CC[C@@]1(OC(=O)CC2(CN)CCCCC2)C(=O)OCc2c1cc1n(c2=O)Cc2cc3c(Br)cccc3nc2-1.Cl [Comp. 11] |  |  | elimination of the self-immolative group W | 
CC[C@@]1(OC(=O)CC2(CNC(=O)[C@@H](CCCNC(N)=O)NC(=O)[C@@H](NC(=O)CCCCCN3C(=O)CC(N[C@H](C=O)CS)C3=O)C(C)C)CCCCC2)C(=O)OCc2c1cc1n(c2=O)Cc2cc3c(Br)cccc3nc2-1 (stereo partly shown) [conjugate A1] |  |  |  | Partial disappearance
